Experimental data taken from patent publication US12691087B2, “Method of enhancing glucose levels in the central nervous system” (THE INSTITUTE FOR ETHNOMEDICINE, priority 2018, dated 2026).

Assays:
[1] = Glucose in cerebral spinal fluid of vervets fed L-serine; assay type: in vivo, vervets (Chlorocebus pygerythrus)
Method: […]. These were compared to four control vervets who were fed daily control doses of 651 mg/day of rice powder for 42 days.
Cerebral spinal fluid samples were taken during the experiment. The cerebral spinal fluid samples from vervets fed L-serine were compared to cerebral spinal fluid samples from control vervets at 42 days.
Frozen cerebral spinal fluid (CSF) was prepared using equal volumes of CSF and 20% w/v TCA. The combined volume was sonicated (Fisher Scientific Sonic Dismembrator, Model 100) on ice at 2 watts (10 s×3) and left to precipitate at room temperature for 30 minutes. The sample was then centrifuged (Labnet Spectrafuge 16M) at 14,000 g for 5 min. […]
CSF extracts were analyzed on a TSQ Quantiva (Thermo Scientific) triple quadrupole mass spectrometer with an Ultra High Pressure Liquid Chromatography (Waters Acquity-UHPLC) system equipped with a Binary Solvent Manager, Sample Manager, and an Acquity UPLC BEH Amide column (#186004801, 100×2.1 mm, 1.7 μm) at 50° C. […]
The mass spectrometer was operated with a heated electrospray ionization (H-ESI) probe and sheath gas pressure set to 40 (Arb), aux gas set to 2 (Arb), and sweep gas set to 1 (Arb). Samples were analyzed in negative ion mode with a vaporizer temperature of 350° C., capillary temperature of 130° C., and spray voltage 2800v. […]

[2] = test system: human neuroblastoma cells (SH-SY5Y); test: Glucose synthesis by SH-SY5Y cells given L-serine (Amplex Red Glucose Assay, culture medium); assay type: cell-based; conditions: 100, 200 and 500 mM L-serine; 0, 24 and 48 hrs; medium deficient in glucose
Method: Cell Culture: SH-SY5Y human neuroblastoma (PD19, […]) were cultured in 150 cm^2 flasks in Dulbecco's Modified Eagle's Medium/Nutrient F-12 Ham (Sigma-Aldrich, Cat. No. D8437) containing 10% fetal bovine serum (FBS), 4 mM L-glutamine, 100 U/mL penicillin, and 100 μg/mL streptomycin at 37° C. (Complete Medium) in a humidified atmosphere of 5% CO2 and 95% air. At between 70 and 90% confluence, the cells were trypsinized with 0.5% Trypsin-EDTA (Thermo Fisher, Cat. No. 15400054) and then 2.5×10^5 cells/well plated in twenty-four-well plates and allowed to adhere overnight (PD22). The following day, the cell culture medium was aspirated, and the cells were washed three times in warm […] Hanks buffered salt solution (HBSS). […] Glucose concentrations were measured using the Amplex® Red Glucose/Glucose Oxidase Assay Kit (Invitrogen). […] Fluorescence was read at excitation 540 nm and emission […] in SoftMax Pro version 7.0.2 on a Molecular Devices Flexstation 3. Glucose concentrations in the samples were calculated from the standard curve. […] Human neuroblastoma cells were incubated in medium deficient in glucose and L-serine, but supplemented with increasing concentrations of L-[…], 200 and 500 mM) for 0, 24 and 48 hrs, then glucose concentrations in the culture medium measured using the Amplex® Red Glucose Assay (Invitrogen).

[3] = Storage stability of L-serine; assay type: physicochemical; conditions: 24 month storage, room temperature (<30° C.), relative humidity <75%
[4] = Randomized, placebo-controlled double-blinded study of cognitive ability in healthy post-menopausal women (Rey Auditory Verbal Learning Test); assay type: in vivo, human; conditions: 15 g/day for 60 days
Source text: This Example describes a nutritional experiment conducted on post-menopausal women. The study was designed to determine if dietary supplementation with L-[…] grams/day) improves cognitive ability in healthy women when administered over a 60-day period. Forty-eight women ages 55 years, who had not been diagnosed with mild cognitive impairment, probable dementia, or Alzheimer's disease participated as volunteers in this randomized, placebo-controlled double-blinded study. Forty-three women completed the study. Cognitive abilities of each participant were assessed in several different cognitive domains by using the NIH toolbox (Gershon et al, 2013) on an I-Pad, founded on earlier test procedures developed by Atkinson and […] (1968). Cognitive tests included the Rey Auditory Verbal Learning Test which broadly assesses short-term auditory and verbal learning (King et al. 1998). For example, in one test participants were presented 15 unrelated words and asked to repeat them again after 30 minutes. The cognitive assessment was administered to participants at the beginning and the end of the sixty-day study period. The assessment procedure lasted 45 minutes for each individual. L-serine gummies, each at 2.2 grams total weight, and each containing 1.0 grams of L-serine were manufactured in a cGMP FDA-compliant facility by […]). Placebo gummies were manufactured in a similar manner. […] The gummies were placed in sealed foil packets, each packet containing 15 gummies. Microbiological analysis indicated the gummies to be free of bacterial contamination. The materials used for packaging were manufactured by ESP Packaging LLC (Costa Mesa, CA). Each individual foil packet was labeled with a lot number containing the Julian code date. […] The differences between the beginning and end score for each participant in the L-serine treatment and placebo treatment groups were evaluated using a Wilcoxon-Mann-Whitney test with p<0.05 as the significance level. […]

[5] = Case study of a person with GLUT1 deficiency; assay type: in vivo, human; conditions: 30 grams per day oral, single patient
Source text: Evidence for the efficacy of L-serine therapy for glucose deficiency syndrome is supported by a case-study of a person (“the patient”) who suffered ataxia, developmental impairment, reduced social interaction, and fine motor skill deficits as a result of their GLUT1 deficiency. In subjects suffering from glucose deficiency syndrome, there is insufficient glucose transported across the brain to allow proper functioning of brain cells. Since L-serine is transported through a different mechanism across the blood brain barrier, it is possible to increase intracranial glucose concentrations through administration of high doses of L-serine. The patient was administered 30 grams of L-serine per day by oral administration.

[6] = up to 30 g/day over a six-month period; 20 ALS patients; cited from earlier work

changes in optical rotation or purity on storage [3]: No significant changes
stability on storage [3]: extraordinarily stable
Structure (SMILES): N[C@@H](CO)C(=O)O [L-serine]
increase of glucose levels versus control vervets ([1]; 651 mg/day oral for 42 days, significant at p<0.005): great than doubling
median level of glucose in CSF ([1]; vervets fed 651 mg/day L-serine for 42 days, CSF at 42 days, control 24 mg/100 ml, p<0.005): 58 mg/100 ml
glucose concentration in the culture medium compared to Control (0 mM L-serine) [2]: No significant increase
delayed list recall ([4]; did not achieve statistical significance): trend towards improvement
mean improvement on the Rey Auditory Verbal Learning Test ([4]; final minus beginning score, placebo 4.0): 7.9
improvement in learning ability (Rey Auditory Verbal Learning Test) compared to the placebo group ([4]; p<0.01): 98%
fine motor skills, including handwriting [5]: improved fine motor skills
social interaction [5]: improved social interaction
patient's condition (ability to ride a bicycle and carry cargo) ([5]; within several weeks): rapid improvement
safety [6]: safe
